Reference: ChEMBL document CHEMBL3232845 (Bioorg Med Chem Lett, 2014)

Experiments:
[1] = molecular target: SRSF protein kinase 2 (Homo sapiens) (UniProt P78362); assay: Inhibition of human SRPK2 assessed as enzyme activity at 1 uM relative to control; parameters: scale not given: the % may be the effect or the level left
[2] = molecular target: Ribosomal protein S6 kinase alpha-2 (Homo sapiens) (UniProt Q15349); assay: Inhibition of human Rsk3 assessed as enzyme activity at 1 uM relative to control; parameters: scale not given: the % may be the effect or the level left
[3] = molecular target: Serine/threonine-protein kinase MRCK beta (Homo sapiens) (UniProt Q9Y5S2); assay: Inhibition of human MRCKbeta assessed as enzyme activity at 1 uM relative to control; parameters: scale not given: the % may be the effect or the level left
[4] = molecular target: Protein-tyrosine kinase 6 (Homo sapiens) (UniProt Q13882); assay: Inhibition of human PTK6 assessed as enzyme activity at 1 uM relative to control; parameters: scale not given: the % may be the effect or the level left
[5] = molecular target: Ephrin type-A receptor 3 (Homo sapiens) (UniProt P29320); assay: Inhibition of human EphA3 assessed as enzyme activity at 1 uM relative to control; parameters: scale not given: the % may be the effect or the level left
[6] = molecular target: Serine/threonine-protein kinase TAO3 (Homo sapiens) (UniProt Q9H2K8); assay: Inhibition of human TAO3 assessed as enzyme activity at 1 uM relative to control; parameters: scale not given: the % may be the effect or the level left
[7] = molecular target: Tyrosine-protein kinase Fyn (Homo sapiens) (UniProt P06241); assay: Inhibition of human Fyn assessed as enzyme activity at 1 uM relative to control; parameters: scale not given: the % may be the effect or the level left
[8] = molecular target: Ephrin type-A receptor 2 (Homo sapiens) (UniProt P29317); assay: Inhibition of human EphA2 assessed as enzyme activity at 1 uM relative to control; parameters: scale not given: the % may be the effect or the level left
[9] = molecular target: Glycogen synthase kinase-3 beta (Homo sapiens) (UniProt P49841); assay: Inhibition of human GSK3beta assessed as enzyme activity at 1 uM relative to control; parameters: scale not given: the % may be the effect or the level left
[10] = molecular target: Serine/threonine-protein kinase BRSK1 (Homo sapiens) (UniProt Q8TDC3); assay: Inhibition of human BrSK1 assessed as enzyme activity at 1 uM relative to control; parameters: scale not given: the % may be the effect or the level left
[11] = molecular target: Serine/threonine-protein kinase D2 (Homo sapiens) (UniProt Q9BZL6); assay: Inhibition of human PKD2 assessed as enzyme activity at 1 uM relative to control; parameters: scale not given: the % may be the effect or the level left
[12] = molecular target: RAC-gamma serine/threonine-protein kinase (Homo sapiens) (UniProt Q9Y243); assay: Inhibition of human AKT3 assessed as enzyme activity at 1 uM relative to control; parameters: scale not given: the % may be the effect or the level left
[13] = molecular target: Interleukin-1 receptor-associated kinase 1 (Homo sapiens) (UniProt P51617); assay: Inhibition of human IRAK1 assessed as enzyme activity at 1 uM relative to control; parameters: scale not given: the % may be the effect or the level left
[14] = molecular target: Tyrosine-protein kinase JAK2 (Homo sapiens) (UniProt O60674); assay: Inhibition of human JAK2 assessed as enzyme activity at 1 uM relative to control; parameters: scale not given: the % may be the effect or the level left
[15] = molecular target: Serine/threonine-protein kinase Chk1 (Homo sapiens) (UniProt O14757); assay: Inhibition of human CHK1 assessed as enzyme activity at 1 uM relative to control; parameters: scale not given: the % may be the effect or the level left
[16] = molecular target: Casein kinase II subunit alpha' (Homo sapiens) (UniProt P19784); assay: Inhibition of human CK2alpha2 assessed as enzyme activity at 1 uM relative to control; parameters: scale not given: the % may be the effect or the level left
[17] = molecular target: Dual specificity mitogen-activated protein kinase kinase 6 (Homo sapiens) (UniProt P52564); assay: Inhibition of human MKK6 assessed as enzyme activity at 1 uM relative to control; parameters: scale not given: the % may be the effect or the level left
[18] = molecular target: Angiopoietin-1 receptor (Homo sapiens) (UniProt Q02763); assay: Inhibition of human Tie2 assessed as enzyme activity at 1 uM relative to control; parameters: scale not given: the % may be the effect or the level left
[19] = molecular target: CDK9/cyclin T1 (Homo sapiens) (UniProt O60563+P50750); assay: Inhibition of human CDK9/cyclinT1 assessed as enzyme activity at 1 uM relative to control; type: protein-complex assay; parameters: scale not given: the % may be the effect or the level left
[20] = molecular target: Macrophage colony-stimulating factor 1 receptor (Homo sapiens) (UniProt P07333); assay: Inhibition of human Fms assessed as enzyme activity at 1 uM relative to control; parameters: scale not given: the % may be the effect or the level left
[21] = molecular target: Dual specificity protein kinase CLK3 (Homo sapiens) (UniProt P49761); assay: Inhibition of human CLK3 assessed as enzyme activity at 1 uM relative to control; parameters: scale not given: the % may be the effect or the level left
[22] = molecular target: Serine/threonine-protein kinase ULK3 (Homo sapiens) (UniProt Q6PHR2); assay: Inhibition of human ULK3 assessed as enzyme activity at 1 uM relative to control; parameters: scale not given: the % may be the effect or the level left
[23] = molecular target: Inhibitor of nuclear factor kappa-B kinase subunit beta (Homo sapiens) (UniProt O14920); assay: Inhibition of human IKKbeta assessed as enzyme activity at 1 uM relative to control; parameters: scale not given: the % may be the effect or the level left
[24] = molecular target: Discoidin domain-containing receptor 2 (Homo sapiens) (UniProt Q16832); assay: Inhibition of human DDR2 assessed as enzyme activity at 1 uM relative to control; parameters: scale not given: the % may be the effect or the level left
[25] = molecular target: Tyrosine-protein kinase BTK (Homo sapiens) (UniProt Q06187); assay: Inhibition of human BTK assessed as enzyme activity at 1 uM relative to control; parameters: scale not given: the % may be the effect or the level left
[26] = molecular target: Serine/threonine-protein kinase TBK1 (Homo sapiens) (UniProt Q9UHD2); assay: Inhibition of human TBK1 assessed as enzyme activity at 1 uM relative to control; parameters: scale not given: the % may be the effect or the level left
[27] = molecular target: Casein kinase I isoform gamma-1 (Homo sapiens) (UniProt Q9HCP0); assay: Inhibition of human CK1gamma1 assessed as enzyme activity at 1 uM relative to control; parameters: scale not given: the % may be the effect or the level left
[28] = molecular target: Testis-specific serine/threonine-protein kinase 1 (Homo sapiens) (UniProt Q9BXA7); assay: Inhibition of human TSSK1 assessed as enzyme activity at 1 uM relative to control; parameters: scale not given: the % may be the effect or the level left
[29] = molecular target: Protein kinase C theta type (Homo sapiens) (UniProt Q04759); assay: Inhibition of human PKCtheta assessed as enzyme activity at 1 uM relative to control; parameters: scale not given: the % may be the effect or the level left
[30] = molecular target: Serine/threonine-protein kinase PAK 4 (Homo sapiens) (UniProt O96013); assay: Inhibition of human PAK4 assessed as enzyme activity at 1 uM relative to control; parameters: scale not given: the % may be the effect or the level left
[31] = molecular target: Serine/threonine-protein kinase tousled-like 2 (Homo sapiens) (UniProt Q86UE8); assay: Inhibition of human TLK2 assessed as enzyme activity at 1 uM relative to control; parameters: scale not given: the % may be the effect or the level left
[32] = molecular target: Mitogen-activated protein kinase 11 (Homo sapiens) (UniProt Q15759); assay: Inhibition of human p38beta assessed as enzyme activity at 1 uM relative to control; parameters: scale not given: the % may be the effect or the level left
[33] = molecular target: Serine/threonine-protein kinase Nek3 (Homo sapiens) (UniProt P51956); assay: Inhibition of human NEK3 assessed as enzyme activity at 1 uM relative to control; parameters: scale not given: the % may be the effect or the level left
[34] = molecular target: NUAK family SNF1-like kinase 1 (Homo sapiens) (UniProt O60285); assay: Inhibition of human ARK5 assessed as enzyme activity at 1 uM relative to control; parameters: scale not given: the % may be the effect or the level left
[35] = molecular target: Death-associated protein kinase 3 (Homo sapiens) (UniProt O43293); assay: Inhibition of human DAPK3 assessed as enzyme activity at 1 uM relative to control; parameters: scale not given: the % may be the effect or the level left
[36] = molecular target: Focal adhesion kinase 1 (Homo sapiens) (UniProt Q05397); assay: Inhibition of human FAK assessed as enzyme activity at 1 uM relative to control; parameters: scale not given: the % may be the effect or the level left
[37] = molecular target: cGMP-dependent protein kinase 1 (Homo sapiens) (UniProt Q13976); assay: Inhibition of human PRKG1beta assessed as enzyme activity at 1 uM relative to control; parameters: scale not given: the % may be the effect or the level left
[38] = molecular target: Serine/threonine-protein kinase B-raf (Homo sapiens, UniProt P15056, V600E); assay: Inhibition of B-Raf V600E mutant in human Malme-3M cells assessed as basal ERK phosphorylation; type: cell-based

Chain of Casein kinase II subunit alpha' (Homo sapiens) (P19784 whole entry, looked up): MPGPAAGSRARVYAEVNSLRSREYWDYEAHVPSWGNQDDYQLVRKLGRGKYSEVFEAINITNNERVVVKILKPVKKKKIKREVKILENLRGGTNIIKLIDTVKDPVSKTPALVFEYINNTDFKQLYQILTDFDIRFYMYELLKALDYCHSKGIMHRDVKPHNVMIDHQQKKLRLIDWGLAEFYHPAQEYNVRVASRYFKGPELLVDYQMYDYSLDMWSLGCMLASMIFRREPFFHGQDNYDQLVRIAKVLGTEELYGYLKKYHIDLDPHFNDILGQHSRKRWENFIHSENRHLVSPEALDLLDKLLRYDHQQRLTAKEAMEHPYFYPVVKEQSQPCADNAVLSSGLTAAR
Chain of Interleukin-1 receptor-associated kinase 1 (Homo sapiens) (P51617 whole entry, looked up): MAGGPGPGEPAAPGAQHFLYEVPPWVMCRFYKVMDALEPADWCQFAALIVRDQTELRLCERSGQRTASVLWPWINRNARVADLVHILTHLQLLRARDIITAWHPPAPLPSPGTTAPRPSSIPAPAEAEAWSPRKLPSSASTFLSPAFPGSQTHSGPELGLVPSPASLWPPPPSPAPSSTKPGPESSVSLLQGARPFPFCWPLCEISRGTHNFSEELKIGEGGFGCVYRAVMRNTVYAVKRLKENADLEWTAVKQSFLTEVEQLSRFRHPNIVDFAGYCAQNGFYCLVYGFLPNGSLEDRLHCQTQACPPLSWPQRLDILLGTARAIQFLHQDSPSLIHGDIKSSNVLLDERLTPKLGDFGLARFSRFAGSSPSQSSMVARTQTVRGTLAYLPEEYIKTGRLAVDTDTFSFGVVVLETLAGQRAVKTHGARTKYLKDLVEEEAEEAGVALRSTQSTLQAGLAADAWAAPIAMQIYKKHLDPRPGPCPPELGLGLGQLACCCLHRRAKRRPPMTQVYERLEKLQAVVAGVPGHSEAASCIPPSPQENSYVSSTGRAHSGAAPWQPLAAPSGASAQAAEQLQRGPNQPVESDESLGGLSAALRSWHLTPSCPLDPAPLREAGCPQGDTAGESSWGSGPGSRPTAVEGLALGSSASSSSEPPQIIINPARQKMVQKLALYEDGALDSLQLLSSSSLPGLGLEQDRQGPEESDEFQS
Chain of SRSF protein kinase 2 (Homo sapiens) (P78362 whole entry, looked up): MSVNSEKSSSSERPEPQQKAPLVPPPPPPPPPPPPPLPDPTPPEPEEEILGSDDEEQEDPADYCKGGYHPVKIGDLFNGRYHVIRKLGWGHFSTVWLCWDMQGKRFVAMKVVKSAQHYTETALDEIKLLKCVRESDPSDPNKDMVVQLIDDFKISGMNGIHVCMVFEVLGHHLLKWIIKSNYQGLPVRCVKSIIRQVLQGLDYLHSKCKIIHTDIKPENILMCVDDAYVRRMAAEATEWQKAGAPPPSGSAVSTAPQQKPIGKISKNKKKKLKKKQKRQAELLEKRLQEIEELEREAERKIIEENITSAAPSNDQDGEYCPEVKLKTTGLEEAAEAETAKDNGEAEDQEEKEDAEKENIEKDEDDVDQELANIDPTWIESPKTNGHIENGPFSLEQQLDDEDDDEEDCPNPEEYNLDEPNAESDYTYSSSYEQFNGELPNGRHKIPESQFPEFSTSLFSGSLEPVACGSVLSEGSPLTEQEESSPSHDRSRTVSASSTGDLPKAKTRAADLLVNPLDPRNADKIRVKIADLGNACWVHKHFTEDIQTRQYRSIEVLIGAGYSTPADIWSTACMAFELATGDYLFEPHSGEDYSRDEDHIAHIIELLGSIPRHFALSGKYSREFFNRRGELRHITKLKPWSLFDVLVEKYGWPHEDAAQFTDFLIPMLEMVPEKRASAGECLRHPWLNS
Chain of Ephrin type-A receptor 3 (Homo sapiens) (P29320 whole entry): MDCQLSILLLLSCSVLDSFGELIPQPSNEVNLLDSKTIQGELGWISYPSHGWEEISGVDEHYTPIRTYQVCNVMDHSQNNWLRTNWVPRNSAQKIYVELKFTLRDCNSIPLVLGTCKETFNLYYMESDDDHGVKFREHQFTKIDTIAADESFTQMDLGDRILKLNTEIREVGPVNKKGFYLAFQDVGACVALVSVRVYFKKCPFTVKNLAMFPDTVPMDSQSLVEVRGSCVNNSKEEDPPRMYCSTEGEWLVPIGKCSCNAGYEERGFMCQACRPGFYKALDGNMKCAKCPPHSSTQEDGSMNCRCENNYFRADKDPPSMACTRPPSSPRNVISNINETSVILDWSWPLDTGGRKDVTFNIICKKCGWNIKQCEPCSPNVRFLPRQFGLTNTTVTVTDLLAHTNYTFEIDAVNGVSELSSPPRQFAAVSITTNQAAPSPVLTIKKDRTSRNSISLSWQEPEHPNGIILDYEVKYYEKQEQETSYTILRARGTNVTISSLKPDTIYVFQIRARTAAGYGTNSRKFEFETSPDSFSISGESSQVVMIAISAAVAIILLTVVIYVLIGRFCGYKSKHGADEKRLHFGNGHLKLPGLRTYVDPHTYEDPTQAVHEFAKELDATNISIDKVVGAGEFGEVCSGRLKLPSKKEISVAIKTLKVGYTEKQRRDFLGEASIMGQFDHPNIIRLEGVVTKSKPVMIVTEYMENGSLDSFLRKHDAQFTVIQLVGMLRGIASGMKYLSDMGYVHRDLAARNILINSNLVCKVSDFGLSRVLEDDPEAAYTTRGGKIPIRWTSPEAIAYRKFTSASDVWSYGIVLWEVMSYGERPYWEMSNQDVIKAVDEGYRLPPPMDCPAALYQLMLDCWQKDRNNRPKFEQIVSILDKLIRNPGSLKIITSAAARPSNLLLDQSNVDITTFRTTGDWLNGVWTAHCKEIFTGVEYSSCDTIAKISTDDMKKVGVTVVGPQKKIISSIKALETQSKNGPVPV
Chain of Mitogen-activated protein kinase 11 (Homo sapiens) (Q15759 whole entry): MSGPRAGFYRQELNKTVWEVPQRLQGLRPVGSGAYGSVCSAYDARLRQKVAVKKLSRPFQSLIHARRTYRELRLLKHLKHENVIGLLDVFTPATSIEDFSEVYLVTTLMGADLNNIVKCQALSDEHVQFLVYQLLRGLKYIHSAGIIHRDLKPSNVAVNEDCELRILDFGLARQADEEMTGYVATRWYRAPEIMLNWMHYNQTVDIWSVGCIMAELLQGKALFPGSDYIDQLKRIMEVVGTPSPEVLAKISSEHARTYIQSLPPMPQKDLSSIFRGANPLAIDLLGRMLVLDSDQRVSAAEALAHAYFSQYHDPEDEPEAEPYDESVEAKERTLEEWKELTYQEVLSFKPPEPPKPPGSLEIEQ
Chain of Discoidin domain-containing receptor 2 (Homo sapiens) (Q16832 whole entry, the tested form may be a part): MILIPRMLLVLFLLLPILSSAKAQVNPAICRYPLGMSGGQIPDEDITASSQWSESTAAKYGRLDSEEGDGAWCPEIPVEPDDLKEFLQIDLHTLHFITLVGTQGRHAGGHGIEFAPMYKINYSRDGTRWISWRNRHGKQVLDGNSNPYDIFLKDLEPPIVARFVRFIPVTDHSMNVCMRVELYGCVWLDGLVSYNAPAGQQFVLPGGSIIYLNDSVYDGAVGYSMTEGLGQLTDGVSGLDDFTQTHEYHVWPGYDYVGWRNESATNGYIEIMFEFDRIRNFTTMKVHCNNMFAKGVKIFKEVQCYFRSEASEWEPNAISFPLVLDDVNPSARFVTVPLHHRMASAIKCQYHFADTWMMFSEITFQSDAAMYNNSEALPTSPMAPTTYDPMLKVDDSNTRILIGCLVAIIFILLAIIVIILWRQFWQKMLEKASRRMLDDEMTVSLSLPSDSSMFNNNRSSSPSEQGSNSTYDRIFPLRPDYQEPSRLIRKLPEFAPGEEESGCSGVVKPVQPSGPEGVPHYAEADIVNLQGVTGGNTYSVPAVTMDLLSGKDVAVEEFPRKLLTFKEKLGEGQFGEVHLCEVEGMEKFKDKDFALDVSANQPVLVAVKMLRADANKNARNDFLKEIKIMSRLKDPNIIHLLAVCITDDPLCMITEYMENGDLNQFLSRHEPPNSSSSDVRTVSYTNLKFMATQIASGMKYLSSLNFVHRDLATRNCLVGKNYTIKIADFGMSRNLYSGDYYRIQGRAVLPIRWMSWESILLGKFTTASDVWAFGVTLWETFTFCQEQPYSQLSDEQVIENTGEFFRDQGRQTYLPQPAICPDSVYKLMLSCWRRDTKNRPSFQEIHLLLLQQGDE
Chain of NUAK family SNF1-like kinase 1 (Homo sapiens) (O60285 whole entry): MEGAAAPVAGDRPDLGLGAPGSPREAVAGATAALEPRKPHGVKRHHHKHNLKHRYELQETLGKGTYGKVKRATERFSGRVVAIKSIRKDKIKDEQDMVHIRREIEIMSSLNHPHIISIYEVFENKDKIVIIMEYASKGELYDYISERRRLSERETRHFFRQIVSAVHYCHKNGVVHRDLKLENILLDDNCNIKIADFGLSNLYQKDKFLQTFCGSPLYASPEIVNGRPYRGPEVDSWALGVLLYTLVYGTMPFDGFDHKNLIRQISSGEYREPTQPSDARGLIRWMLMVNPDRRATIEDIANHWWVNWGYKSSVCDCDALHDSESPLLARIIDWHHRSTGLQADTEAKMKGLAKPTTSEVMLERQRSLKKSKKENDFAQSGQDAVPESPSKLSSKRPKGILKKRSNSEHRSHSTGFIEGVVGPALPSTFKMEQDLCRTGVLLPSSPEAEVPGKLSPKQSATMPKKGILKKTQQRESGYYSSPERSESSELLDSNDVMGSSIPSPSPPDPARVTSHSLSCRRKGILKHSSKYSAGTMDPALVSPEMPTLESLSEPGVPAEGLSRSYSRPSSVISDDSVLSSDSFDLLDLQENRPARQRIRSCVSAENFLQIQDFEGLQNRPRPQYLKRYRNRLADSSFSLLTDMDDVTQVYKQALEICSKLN
Chain of Dual specificity mitogen-activated protein kinase kinase 6 (Homo sapiens) (P52564 whole entry): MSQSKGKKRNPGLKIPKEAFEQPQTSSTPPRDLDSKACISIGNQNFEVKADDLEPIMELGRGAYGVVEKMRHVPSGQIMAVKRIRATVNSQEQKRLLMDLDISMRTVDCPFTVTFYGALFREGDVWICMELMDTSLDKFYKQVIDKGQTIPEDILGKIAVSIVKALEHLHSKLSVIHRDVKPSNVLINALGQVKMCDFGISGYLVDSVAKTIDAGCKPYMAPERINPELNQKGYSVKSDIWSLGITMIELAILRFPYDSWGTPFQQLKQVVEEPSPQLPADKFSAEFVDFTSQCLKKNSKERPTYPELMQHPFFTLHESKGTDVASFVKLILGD

Question: What does the source list for `CCCS(=O)(=O)Nc1cccc(Nc2ccc3ncn(C)c(=O)c3c2)c1C#N`?
Answer: Activity [1]: 96.5%; Activity [2]: 87%; Activity [3]: 104%; Activity [4]: 57.5%; Activity [5]: 108%; Activity [6]: 100%; Activity [7]: 91.5%; Activity [8]: 99.5%; Activity [9]: 95.5%; Activity [10]: 102%; Activity [11]: 95.5%; Activity [12]: 109%; Activity [13]: 108%; Activity [14]: 110%; Activity [15]: 106%; Activity [16]: 99%; Activity [17]: 118%; Activity [18]: 118%; Activity [19]: 104%; Activity [20]: 99%; Activity [21]: 96%; Activity [22]: 92%; Activity [23]: 104%; Activity [24]: 100%; Activity [25]: 102%; Activity [26]: 98%; Activity [27]: 104%; Activity [28]: 98%; Activity [29]: 97.5%; Activity [30]: 92%; Activity [31]: 104%; Activity [32]: 110%; Activity [33]: 112%; Activity [34]: 109%; Activity [35]: 110%; Activity [36]: 102%; Activity [37]: 106%; IC50 [38]: 6 nM
